{"source": "patent US20260284078A1", "about": "“IMMUNOS[…] AND METHODS THEREOF” (priority 2023, published 2026)", "key": {"[1]": {"test": "Example 5 peripheral drug exposures in blood and plasma", "type": "in vivo, cynomolgus macaques", "conditions": "oral once per day (Dex 0.5 mg/kg, Tac 1 mg/kg, Pred 3 mg/kg); day 21, 4 hours post-dosing", "text": "FIG. 9. Exemplary peripheral drug exposures in blood and plasma. […] The X axis of the graph denotes immunosuppression agent (dexamethasone, tacrolimus, or prednisolone); the Y axis of the graph depicts ng/ml of the immunosuppression agent as detected in blood for dexamethasone and prednisolone or in plasma for tacrolimus. Each circle represents data collected from one animal."}, "cynomolgus macaques [2]": {"system": "cynomolgus macaques", "test": "Example 5 histopathological lesions in examined animals (Table 1)", "type": "in vivo", "conditions": "rAAV 5×10^13 vg/kg IV + regimen, day 22 necropsy", "text": "FIGS. 10A-10C. […] Columns represent average value for each treatment group. […] Treatment group is denoted at left. […] Magnification is indicated at top. […] Treatment groups of animals are indicated at top."}, "cynomolgus macaques [3]": {"system": "cynomolgus macaques", "test": "Example 5 liver enzymes and total bilirubin in blood (Table 2)", "conditions": "rAAV 5×10^13 vg/kg IV plus regimen", "excerpt": "Blood samples were collected from animals on days-7, 4, 8, 15, and 22 (wherein 0=day of rAAV administration) and subsequently analyzed for levels of certain liver enzymes and total bilirubin. […] (D) Level of total bilirubin (TBIL) was quantified. The X axis depicts day of study (wherein 0=day of rAAV administration); the Y axis depicts milligrams (mg) per deciliter (dL) of total bilirubin. Each graphed line corresponds to data collected from one animal. Legend at right identifies treatment group.\nReduction in liver toxicity upon treatment with rAAV by tested immunosuppression regimens was investigated through measurement of levels of liver enzymes and analysis of liver lesions at necropsy."}}, "data": [{"molecule": "C=CC[C@@H]1/C=C(\\C)C[C@H](C)C[C@H](OC)[C@H]2O[C@@](O)(C(=O)C(=O)N3CCCC[C@H]3C(=O)O[C@H](/C(C)=C/[C@@H]3CC[C@@H](O)[C@H](OC)C3)[C@H](C)[C@@H](O)CC1=O)[C@H](C)C[C@@H]2OC", "note": "[Tac, tacrolimus]", "values": [{"measurement": "peripheral drug exposure", "setting": "[1]", "result": "achieved targeted ranges of peripheral drug exposure"}]}, {"molecule": "C[C@@H]1C[C@H]2[C@@H]3CCC4=CC(=O)C=C[C@]4(C)[C@@]3(F)[C@@H](O)C[C@]2(C)[C@@]1(O)C(=O)CO", "note": "[Dex, dexamethasone]", "values": [{"measurement": "peripheral drug exposure", "setting": "[1]", "result": "achieved targeted ranges of peripheral drug exposure"}]}, {"molecule": "C[C@]12C=CC(=O)C=C1CC[C@@H]1[C@@H]2[C@@H](O)C[C@@]2(C)[C@H]1CC[C@]2(O)C(=O)CO", "note": "[Pred, prednisolone]", "values": [{"measurement": "peripheral drug exposure", "setting": "[1]", "result": "achieved targeted ranges of peripheral drug exposure"}, {"measurement": "Dorsal root ganglia, cervical: Infiltrate, mononuclear cell (animals affected, total)", "setting": "cynomolgus macaques [2]; 3 examined per group", "result": "(0)"}, {"measurement": "Dorsal root ganglia, cervical: Infiltrate, mononuclear cell, Minimal (animals)", "setting": "cynomolgus macaques [2]; 3 examined per group", "result": 0}, {"measurement": "Dorsal root ganglia, lumbar: Degeneration/necrosis, neuron (animals affected, total)", "setting": "cynomolgus macaques [2]; 3 examined per group", "result": "(3)"}, {"measurement": "Dorsal root ganglia, lumbar: Degeneration/necrosis, neuron, Minimal (animals)", "setting": "cynomolgus macaques [2]; 3 examined per group", "result": 3}, {"measurement": "Dorsal root ganglia, lumbar: Infiltrate, mononuclear cell (animals affected, total)", "setting": "cynomolgus macaques [2]; 3 examined per group", "result": "(3)"}, {"measurement": "Dorsal root ganglia, lumbar: Infiltrate, mononuclear cell, Minimal (animals)", "setting": "cynomolgus macaques [2]; 3 examined per group", "result": 3}, {"measurement": "Dorsal root ganglia, sacral: Degeneration/necrosis, neuron (animals affected, total)", "setting": "cynomolgus macaques [2]; 3 examined per group", "result": "(1)"}, {"measurement": "Dorsal root ganglia, sacral: Degeneration/necrosis, neuron, Minimal (animals)", "setting": "cynomolgus macaques [2]; 3 examined per group", "result": 1}, {"measurement": "Dorsal root ganglia, sacral: Infiltrate, mononuclear cell (animals affected, total)", "setting": "cynomolgus macaques [2]; 3 examined per group", "result": "(1)"}, {"measurement": "Dorsal root ganglia, sacral: Infiltrate, mononuclear cell, Mild (animals)", "setting": "cynomolgus macaques [2]; 3 examined per group", "result": 1}, {"measurement": "Dorsal root ganglia, sacral: Infiltrate, mononuclear cell, Minimal (animals)", "setting": "cynomolgus macaques [2]; 3 examined per group", "result": 0}, {"measurement": "Dorsal root ganglia, thoracic: Degeneration/necrosis, neuron (animals affected, total)", "setting": "cynomolgus macaques [2]; 3 examined per group", "result": "(1)"}, {"measurement": "Dorsal root ganglia, thoracic: Degeneration/necrosis, neuron, Minimal (animals)", "setting": "cynomolgus macaques [2]; 3 examined per group", "result": 1}, {"measurement": "Dorsal root ganglia, thoracic: Infiltrate, mononuclear cell (animals affected, total)", "setting": "cynomolgus macaques [2]; 3 examined per group", "result": "(2)"}, {"measurement": "Dorsal root ganglia, thoracic: Infiltrate, mononuclear cell, Minimal (animals)", "setting": "cynomolgus macaques [2]; 3 examined per group", "result": 2}, {"measurement": "Heart: Degeneration, myocardium (animals affected, total)", "setting": "cynomolgus macaques [2]; 3 examined per group", "result": "(1)"}, {"measurement": "Heart: Degeneration, myocardium, Minimal (animals)", "setting": "cynomolgus macaques [2]; 3 examined per group", "result": 1}, {"measurement": "Heart: Infiltrate, mononuclear cell, adipose (animals affected, total)", "setting": "cynomolgus macaques [2]; 3 examined per group", "result": "(3)"}, {"measurement": "Heart: Infiltrate, mononuclear cell, adipose, Minimal (animals)", "setting": "cynomolgus macaques [2]; 3 examined per group", "result": 3}, {"measurement": "Heart: Infiltrate, mononuclear cell, myocardium (animals affected, total)", "setting": "cynomolgus macaques [2]; 3 examined per group", "result": "(2)"}, {"measurement": "Heart: Infiltrate, mononuclear cell, myocardium, Mild (animals)", "setting": "cynomolgus macaques [2]; 3 examined per group", "result": 1}, {"measurement": "Heart: Infiltrate, mononuclear cell, myocardium, Minimal (animals)", "setting": "cynomolgus macaques [2]; 3 examined per group", "result": 1}, {"measurement": "Sciatic nerve: Degeneration, nerve fiber (animals affected, total)", "setting": "cynomolgus macaques [2]; 3 examined per group", "result": "(1)"}, {"measurement": "Sciatic nerve: Degeneration, nerve fiber, Minimal (animals)", "setting": "cynomolgus macaques [2]; 3 examined per group", "result": 1}, {"measurement": "Trigeminal ganglion: Degeneration/necrosis, neuron (animals affected, total)", "setting": "cynomolgus macaques [2]; 3 examined per group", "result": "(2)"}, {"measurement": "Trigeminal ganglion: Degeneration/necrosis, neuron, Minimal (animals)", "setting": "cynomolgus macaques [2]; 3 examined per group", "result": 2}, {"measurement": "Trigeminal ganglion: Infiltrate, mononuclear cell (animals affected, total)", "setting": "cynomolgus macaques [2]; 3 examined per group", "result": "(2)"}, {"measurement": "Trigeminal ganglion: Infiltrate, mononuclear cell, Minimal (animals)", "setting": "cynomolgus macaques [2]; 3 examined per group", "result": 2}, {"measurement": "Sympathetic ganglia, thoracic: Infiltrate, mononuclear cell (animals affected, total)", "setting": "cynomolgus macaques [2]; examined: Dex/Tac 1, Pred 3", "result": "(2)"}, {"measurement": "Sympathetic ganglia, thoracic: Infiltrate, mononuclear cell, Minimal (animals)", "setting": "cynomolgus macaques [2]; examined: Dex/Tac 1, Pred 3", "result": 2}, {"measurement": "Sympathetic ganglia, cervical: Infiltrate, mononuclear cell (animals affected, total)", "setting": "cynomolgus macaques [2]; examined: Dex/Tac 3, Pred 2", "result": "(1)"}, {"measurement": "Sympathetic ganglia, cervical: Infiltrate, mononuclear cell, Minimal (animals)", "setting": "cynomolgus macaques [2]; examined: Dex/Tac 3, Pred 2", "result": 1}, {"measurement": "total bilirubin levels", "setting": "cynomolgus macaques [3]", "result": "notable increases"}]}]}
